Results reported in patent publication US20050197350A1, “Novel quinoline, tetrahydroquinazoline, and pyrimidine derivatives and methods of treatment related to the use thereof” (TAISHO PHARMACEUTICAL CO., LTD., priority 2003, published 2005).

Each compound was assayed on MCH receptors (assay: MCH receptor activity class (method not given)). Conditions: not given.
`Cc1cc(N(C)C)nc(N[C@H]2CC[C@@H](C(=O)NCc3cc(Cl)cc(Cl)c3)CC2)n1` [Example 2575, cis-N-(3,5-dichlorobenzyl)-4-{[4-(dimethylamino)-6-methylpyrimidin-2-yl]amino}cyclohexanecarboxamide] was tested, and the class was 1. For `Cc1cccc(C(=O)N[C@H]2CC[C@@H](Nc3cc(C)c4ccccc4n3)CC2)c1` [Example 2543, 3-methyl-N-{cis-4-[(4-methylquinolin-2-yl)amino]cyclohexyl}benzamide], the class was 1. Compound `Cc1cc(N(C)C)nc(N[C@H]2CC[C@@H](C(=O)NCc3ccc(Cl)cc3Cl)CC2)n1` [Example 2572, cis-N-(2,4-dichlorobenzyl)-4-{[4-(dimethylamino)-6-methylpyrimidin-2-yl]amino}cyclohexanecarboxamide] has a class of 1.

Same assay, conditions: MCH receptor activity class 1-3 (percent of control at 10^-7 M or IC50)
With `CN(C)c1nc(N[C@H]2CC[C@@H](CNC(=O)Nc3ccccc3C(F)(F)F)CC2)nc2c1CCCC2` [compound 2458] the class was 3 (Class 3 The value of percent of control at 10^−7 M was more than 60% or the value of IC50 was more than 200 nM.). With `CN(C)c1cc(N[C@H]2CC[C@@H](NC(=S)Nc3ccc(Br)cc3OC(F)(F)F)CC2)nc2ccccc12` [compound 2307] the class was 3 (Class 3 The value of percent of control at 10^−7 M was more than 60% or the value of IC50 was more than 200 nM.). For `CCOC(=O)c1cccc(NC(=S)N[C@H]2CC[C@@H](Nc3cc(N(C)C)c4ccccc4n3)CC2)c1` [compound 2293], the class was 3 (Class 3 The value of percent of control at 10^−7 M was more than 60% or the value of IC50 was more than 200 nM.).

Same assay, conditions: MCH receptor; class by percent of control at 10^-7 M or IC50
With `CN(C)c1cc(N[C@H]2CC[C@@H](NC(=O)COc3ccccc3)CC2)nc2ccccc12` [compound 112, N-(cis-4-{[4-(dimethylamino)quinolin-2-yl]amino}cyclohexyl)-2-phenoxyacetamide] the class was 1 (Class 1: The value of percent of control at 10^−7 M was less than 40% or the value of IC50 was less than 50 nM.). `CN(C)c1cc(N[C@H]2CC[C@@H](NC(=O)Cc3ccc(F)cc3)CC2)nc2ccccc12` [compound 68] was tested, and the class was 3 (Class 3 The value of percent of control at 10^−7 M was more than 60% or the value of IC50 was more than 200 nM.). In the case of `CSc1cccc(NC(=S)N[C@H]2CC[C@@H](Nc3nc4c(c(N(C)C)n3)CCCC4)CC2)c1` [compound 2004], the class is reported as 3 (Class 3 The value of percent of control at 10^−7 M was more than 60% or the value of IC50 was more than 200 nM.). `CN(C)c1cc(N[C@H]2CC[C@@H](NC(=O)c3cccnc3Oc3ccccc3)CC2)nc2ccccc12` [compound 135, N-(cis-4-{[4-(dimethylamino)quinolin-2-yl]amino}cyclohexyl)-2-phenoxynicotinamide] was tested, and the class was 1 (Class 1: The value of percent of control at 10^−7 M was less than 40% or the value of IC50 was less than 50 nM.).

Same assay, conditions: activity class 1-3: percent of control at 10^-7 M or IC50
In the case of `CN(C)c1nc(N[C@H]2CC[C@@H](NC(=O)Nc3ccccc3-c3ccccc3)CC2)nc2c1CCCC2` [compound 1694], the class is reported as 3 (Class 3 The value of percent of control at 10^−7 M was more than 60% or the value of IC50 was more than 200 nM.). In the case of `COCCOC(=O)NC[C@H]1CC[C@@H](Nc2cc(N(C)C)c3ccccc3n2)CC1` [compound 1565], the class is reported as 3 (Class 3 The value of percent of control at 10^−7 M was more than 60% or the value of IC50 was more than 200 nM.).

Same assay, conditions: activity class per percent of control at 10^-7 M or IC50
For `CN(C)c1nc(N[C@H]2CC[C@@H](NC(=O)COc3c(Cl)cc(Cl)cc3Cl)CC2)nc2c1CCCC2` [compound 1023], the class was 3 (Class 3 The value of percent of control at 10^−7 M was more than 60% or the value of IC50 was more than 200 nM.).

Same assay, conditions: class 1-3 by percent of control at 10^-7 M or IC50
For `CN(C)c1nc(N[C@H]2CC[C@@H](NC(=O)c3c(F)c(F)c(F)c(F)c3F)CC2)nc2c1CCCC2` [compound 566], the class was 3 (Class 3 The value of percent of control at 10^−7 M was more than 60% or the value of IC50 was more than 200 nM.). With `Cc1ccc(C(=O)N[C@H]2CC[C@@H](Nc3nc4c(c(N(C)C)n3)CCCC4)CC2)cc1[N+](=O)[O-]` [compound 479] the class was 1 (Class 1: The value of percent of control at 10^−7 M was less than 40% or the value of IC50 was less than 50 nM.). For `CN(C)c1nc(N[C@H]2CC[C@@H](NC(=O)c3cc(F)cc(C(F)(F)F)c3)CC2)nc2c1CCCC2` [compound 474], the class was 1 (Class 1: The value of percent of control at 10^−7 M was less than 40% or the value of IC50 was less than 50 nM.). `Cc1cccc(C(=O)NC[C@H]2CC[C@@H](Nc3nccc(N(C)C)n3)CC2)c1C` [compound 455] was tested, and the class was 3 (Class 3 The value of percent of control at 10^−7 M was more than 60% or the value of IC50 was more than 200 nM.).

Same assay, conditions: class by percent of control at 10^-7 M or IC50
`CCOc1ccc(Br)cc1CNC[C@H]1CC[C@@H](Nc2nc3c(c(N(C)C)n2)CCCC3)CC1` [compound 1408] was tested, and the class was 3 (Class 3 The value of percent of control at 10^−7 M was more than 60% or the value of IC50 was more than 200 nM.). `CN(C)c1nc(N[C@H]2CC[C@@H](NC(=O)Nc3ccc(Br)cc3)CC2)nc2c1CCCC2` [compound 1813] was tested, and the class was 3 (Class 3 The value of percent of control at 10^−7 M was more than 60% or the value of IC50 was more than 200 nM.). `CN(C)c1ccnc(N[C@H]2CC[C@@H](NC(=O)C3CCc4ccccc4C3)CC2)n1` (relative stereo) [compound 917] was tested, and the class was 3 (Class 3 The value of percent of control at 10^−7 M was more than 60% or the value of IC50 was more than 200 nM.). With `CN(C)c1ccnc(N[C@H]2CC[C@@H](NC(=O)c3cccc4ccccc34)CC2)n1` [compound 327] the class was 3 (Class 3 The value of percent of control at 10^−7 M was more than 60% or the value of IC50 was more than 200 nM.). `COc1cc(NC(=S)N[C@H]2CC[C@@H](Nc3cc(N(C)C)c4ccccc4n3)CC2)cc(OC)c1OC` [compound 2175, N-(cis-4-{[4-(dimethylamino)quinolin-2-yl]amino}cyclohexyl)-N′-(3,4,5-trimethoxyphenyl)thiourea] was tested, and the class was 1 (Class 1: The value of percent of control at 10^−7 M was less than 40% or the value of IC50 was less than 50 nM.). For `CSc1sc(C(=O)N[C@H]2CC[C@@H](Nc3nccc(N(C)C)n3)CC2)c(I)c1S(=O)(=O)C(C)C` [compound 905], the class was 2 (Class 2: The value of percent of control at 10^−7 M was from 40% to 60% or the value of IC′50 was from 50 nM to 200 nM.). With `CN(C)c1ccnc(N[C@H]2CC[C@@H](NC(=O)Nc3ccccc3Br)CC2)n1` [compound 2213] the class was 3 (Class 3 The value of percent of control at 10^−7 M was more than 60% or the value of IC50 was more than 200 nM.). In the case of `CN(C)c1ccnc(N[C@H]2CC[C@@H](CNCc3ccc(N(C)C)c4ccccc34)CC2)n1` [compound 1281], the class is reported as 2 (Class 2: The value of percent of control at 10^−7 M was from 40% to 60% or the value of IC′50 was from 50 nM to 200 nM.). With `C[C@H](NC(=O)c1ccccc1C(=O)N[C@H]1CC[C@@H](Nc2cc(N(C)C)c3ccccc3n2)CC1)c1ccccc1` [compound 758] the class was 3 (Class 3 The value of percent of control at 10^−7 M was more than 60% or the value of IC50 was more than 200 nM.). With `CN(C)c1nc(N[C@H]2CC[C@@H](CNCc3ccc(O)cc3Cl)CC2)nc2c1CCCC2` [compound 1388] the class was 2 (Class 2: The value of percent of control at 10^−7 M was from 40% to 60% or the value of IC′50 was from 50 nM to 200 nM.). `CN(C)c1nc(N[C@H]2CC[C@@H](NC(=O)c3ccc(I)o3)CC2)nc2c1CCCC2` [compound 956] was tested, and the class was 1 (Class 1: The value of percent of control at 10^−7 M was less than 40% or the value of IC50 was less than 50 nM.). In the case of `CN(C)c1ccnc(N[C@H]2CC[C@@H](NC(=O)Cc3c[nH]c4ccc(OCc5ccccc5)cc34)CC2)n1` [compound 887], the class is reported as 3 (Class 3 The value of percent of control at 10^−7 M was more than 60% or the value of IC50 was more than 200 nM.). `CCc1cccc(CC)c1NC(=S)N[C@H]1CC[C@@H](Nc2nc3c(c(N(C)C)n2)CCCC3)CC1` [compound 1757] was tested, and the class was 1 (Class 1: The value of percent of control at 10^−7 M was less than 40% or the value of IC50 was less than 50 nM.). `CN(C)c1cc(N[C@H]2CC[C@@H](CNC(=O)Cc3cccc4ccccc34)CC2)nc2ccccc12` [compound 216] was tested, and the class was 3 (Class 3 The value of percent of control at 10^−7 M was more than 60% or the value of IC50 was more than 200 nM.). `COc1cc(C(=O)N[C@H]2CC[C@@H](Nc3nccc(N(C)C)n3)CC2)cc(OC)c1OC` [compound 333] was tested, and the class was 3 (Class 3 The value of percent of control at 10^−7 M was more than 60% or the value of IC50 was more than 200 nM.).

Same assay, conditions: class by percent of control at 10^−7 M or IC50
In the case of `Cc1cc(N(C)C)nc(N[C@H]2CC[C@@H](C(=O)NCc3ccccc3OC(F)(F)F)CC2)n1` [compound 2823, cis-4-{[4-(dimethylamino)-6-methylpyrimidin-2-yl]amino}-N-[2-(trifluoromethoxy)benzyl]cyclohexanecarboxamide], the class is reported as 1 (Class 1: The value of percent of control at 10^−7 M was less than 40% or the value of IC50 was less than 50 nM.). `Cc1cc(N(C)C)nc(N[C@H]2CC[C@@H](C(=O)NCc3ccccc3F)CC2)n1` [compound 2800] was tested, and the class was 2 (Class 2: The value of percent of control at 10^−7 M was from 40% to 60% or the value of IC′50 was from 50 nM to 200 nM.). For `Cc1cc(N(C)C)nc(N[C@H]2CC[C@@H](CNC(=O)c3ccc(Cl)cc3)CC2)n1` [compound 2770, 4-chloro-N-[(cis-4-{[4-(dimethylamino)-6-methylpyrimidin-2-yl]amino}cyclohexyl)methyl]benzamide], the class was 2 (Class 2: The value of percent of control at 10^−7 M was from 40% to 60% or the value of IC′50 was from 50 nM to 200 nM.). `Cc1cc(N(C)C)nc(N[C@H]2CC[C@@H](NC(=O)c3cccc(Cl)c3)CC2)n1` [compound 2987] was tested, and the class was 1 (Class 1: The value of percent of control at 10^−7 M was less than 40% or the value of IC50 was less than 50 nM.). With `Cc1cc(N(C)C)nc(N[C@H]2CC[C@@H](CNC(=O)c3cc(Cl)cc(Cl)c3)CC2)n1` [compound 2766, 3,5-dichloro-N-[(cis-4-{[4-(dimethylamino)-6-methylpyrimidin-2-yl]amino}cyclohexyl)methyl]benzamide] the class was 2 (Class 2: The value of percent of control at 10^−7 M was from 40% to 60% or the value of IC′50 was from 50 nM to 200 nM.).
